The text below walks through data of patent US10562912B2 (C&C Research Laboratories, priority 2013, dated 2020).

What all share (assay type): cell-based
For test [1], the system named is DU-145. As to the kind of experiment: Cell growth inhibition assay, prostate cancer cell line DU-145. The following applies: Homo sapiens, DU-145 prostate cancer cell line. In short, it runs like this: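 Luminescent CellTiter-Glo readout of viable cells after 72–96 h compound exposure (37° C., 5% CO2). Seeding: 3,000 cells/well for DU-145 and HCT116, 5,000 cells/well for SW626. Controls were medium without cells and 0.1% DMSO vehicle.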

Test [2] deals with LNCaP. As to the kind of experiment: Cell growth inhibition assay, prostate cancer cell line LNCaP (medium with 10 ng/mL IL-6). The note with it: Homo sapiens, medium supplemented with 10 ng/mL of IL-6, 10,000 cells/well.
Test [3] addresses T1, STAT3 (Homo sapiens, UniProt P40763).
T1 construct: plasmid pSTAT3-TA-luc), which contains a stably operating STAT3 promoter; endogenous in cells
Briefly: STAT3 reporter gene assay (luciferase), LNCaP stable cell line (pSTAT3-TA-luc), IL-6 stimulation. In short, it runs like this:
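Cytotoxicity was run on a duplicate plate with CellTiter-Glo, while the other plate gave luciferase read-outs from lysed LNCaP pSTAT3-TA-luc reporter cells. Cells were treated with graded compound concentrations plus IL-6 (10 ng/mL final) for 24–48 h in 3% DCC-FBS medium. Unstimulated and stimulated wells served as negative and positive controls.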
Background: In a reporter assay the amount or activity of a reporter protein is the signal.

Usually IC50 stands for the point on the concentration scale where inhibition reaches its midpoint. A high value points to weaker potency in that assay.

T1 sequence (P40763 whole entry): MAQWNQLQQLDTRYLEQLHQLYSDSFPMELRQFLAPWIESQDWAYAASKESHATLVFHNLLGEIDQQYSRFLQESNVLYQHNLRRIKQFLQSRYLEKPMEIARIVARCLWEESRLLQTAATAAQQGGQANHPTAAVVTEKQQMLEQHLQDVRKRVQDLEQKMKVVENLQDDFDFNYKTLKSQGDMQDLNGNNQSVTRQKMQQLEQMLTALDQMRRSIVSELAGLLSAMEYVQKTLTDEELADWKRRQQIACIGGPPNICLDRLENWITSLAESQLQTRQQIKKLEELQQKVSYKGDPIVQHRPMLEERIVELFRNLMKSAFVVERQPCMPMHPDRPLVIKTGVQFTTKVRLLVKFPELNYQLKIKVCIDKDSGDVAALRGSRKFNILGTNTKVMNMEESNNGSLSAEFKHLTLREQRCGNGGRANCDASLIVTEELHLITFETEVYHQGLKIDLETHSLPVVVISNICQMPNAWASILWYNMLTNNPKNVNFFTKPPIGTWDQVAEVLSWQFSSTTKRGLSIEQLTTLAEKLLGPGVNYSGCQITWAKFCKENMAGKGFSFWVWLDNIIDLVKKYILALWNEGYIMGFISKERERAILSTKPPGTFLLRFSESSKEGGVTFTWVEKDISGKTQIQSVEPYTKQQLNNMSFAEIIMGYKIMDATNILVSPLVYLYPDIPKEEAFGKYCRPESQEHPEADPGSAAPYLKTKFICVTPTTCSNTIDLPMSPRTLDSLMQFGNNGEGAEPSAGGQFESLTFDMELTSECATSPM

In the case of `CC(C)Oc1cc(OC(F)(F)F)cc(C(C)(C)c2cc(Cl)cc(NC(=O)c3cc4cc(NS(=O)(=O)CC5CCOCC5)ccc4s3)c2)c1` [Example 198, N-(3-chloro-5-(2-(3-isopropoxy-5-(trifluoromethoxy)phenyl)propan-2-yl)phenyl)-5-(((tetrahydro-2H-pyran-4-yl)methyl)sulfonamido)benzo[b]thiophene-2-carboxamide], the IC50 in test [1] is 0.017 µM; in test [2], 0.046 µM; in test [3], 0.03 µM.
Turning to `CC(C)Oc1cc(OC(F)(F)F)cc(C(C)(C)c2cc(I)cc(NC(=O)c3cc4cc(NS(C)(=O)=O)ccc4s3)c2)c1` [Example 213, N-(3-iodo-5-(2-(3-isopropoxy-5-(trifluoromethoxy)phenyl)propan-2-yl)phenyl)-5-(methylsulfonamido)benzo[b]thiophene-2-carboxamide], the IC50 worked out at 0.011 µM in test [1], 0.025 µM in test [2] and 0.018 µM in test [3].
Take `CN(c1ccc2sc(C(=O)Nc3cc(Cl)cc(Oc4ccc(Cl)cc4)c3)cc2c1)S(C)(=O)=O` [Example 220, N-(3-chloro-5-(4-chlorophenoxy)phenyl)-5-(N-methylmethylsulfonamido)benzo[b]thiophene-2-carboxamide]: the 50% inhibitory concentration (IC50) stood at 0.007 µM in test [1], 0.013 µM in test [2] and 0.012 µM in test [3].
Taken in the same sequence, the figures for `CN(c1ccc2sc(C(=O)Nc3cc(Cl)cc(C(C)(C)c4ccc(Cl)cc4)c3)cc2c1)S(C)(=O)=O` [Example 221, N-(3-chloro-5-(2-(4-chlorophenyl)propan-2-yl)phenyl)-5-(N-methylmethylsulfonamido)benzo[b]thiophene-2-carboxamide] were 0.008 µM, 0.011 µM and 0.011 µM.
Consider `CC(C)Oc1cc(OC(F)(F)F)cc(C(C)(C)c2cc(Cl)cc(NC(=O)C3=Cc4cc(NS(C)(=O)=O)ccc4S3(=O)=O)c2)c1` [Example 222, N-(3-chloro-5-(2-(3-isopropoxy-5-(trifluoromethoxy)phenyl)propan-2-yl)phenyl)-5-(methylsulfonamido)benzo[b]thiophene-2-carboxamide 1,1-dioxide], for which the half-maximal inhibitory concentration (IC50) in test [1] is above 1.1 µM; in test [2], above 1.1 µM; in test [3] it was 6.1 µM.
In the case of `CC(C)Oc1cc(OC(F)(F)F)cc(C(C)(C)c2cc(Cl)cc(NC(=O)c3cc4cc(NS(C)(=O)=O)ccc4[s+]3[O-])c2)c1` (stereo not drawn) [Example 223, N-(3-chloro-5-(2-(3-isopropoxy-5-(trifluoromethoxy)phenyl)propan-2-yl)phenyl)-5-(methylsulfonamido)benzo[b]thiophene-2-carboxamide 1-oxide], the values for the IC50 in test [1], in test [2] and in test [3] were 0.005 µM, 0.17 µM and 0.24 µM, respectively.
For the compound `CS(=O)(=O)Nc1ccc2sc(C(=O)Nc3cc(Cl)cc(-c4ccc(F)cc4F)n3)cc2c1` [Example 331, N-(4-chloro-6-(2,4-difluorophenyl)pyridin-2-yl)-5-(methylsulfonamido)benzo[b]thiophene-2-carboxamide], the half-inhibitory concentration (IC50) in test [1] turned out to be 0.034 µM; in test [2], 0.15 µM; in test [3], 0.051 µM.
Regarding `CS(=O)(=O)Nc1ccc2sc(C(=O)Nc3cc(Cl)cc(-c4ccsc4)c3)cc2c1` [Example 332, N-(3-chloro-5-(thiophen-3-yl)phenyl)-5-(methylsulfonamido)benzo[b]thiophene-2-carboxamide], the IC50 in test [1] turned out to be 0.042 µM; in test [2], 0.17 µM; in test [3], 0.061 µM.
With `CS(=O)(=O)Nc1cc2cc(C(=O)Nc3cc(Cl)cc(-c4ccc(F)cc4F)c3)sc2cc1Cl` [Example 333, 6-chloro-N-(5-chloro-2′,4′-difluoro-[1,1′-biphenyl]-3-yl)-5-(methylsulfonamido)benzo[b]thiophene-2-carboxamide], the IC50 in test [1] was determined as 0.004 µM; in test [2] it was 0.015 µM; in test [3] it was 0.016 µM.
As to `Cn1cccc1-c1cc(Cl)cc(NC(=O)c2cc3cc(NS(C)(=O)=O)ccc3s2)c1` [Example 334, N-(3-chloro-5-(1-methyl-1H-pyrrol-2-yl)phenyl)-5-(methylsulfonamido)benzo[b]thiophene-2-carboxamide], the concentration for half-maximal inhibition (IC50) in test [1] was determined as 0.059 µM; in test [2], 0.14 µM; in test [3] it was 0.096 µM.
For the compound `CS(=O)(=O)Nc1ccc2sc(C(=O)Nc3cc(Cl)cc(-c4ccc(F)cc4F)c3)c(O)c2c1` [Example 335, N-(5-chloro-2′,4′-difluoro-[1,1′-biphenyl]-3-yl)-3-hydroxy-5-(methylsulfonamido)benzo[b]thiophene-2-carboxamide], the half-inhibitory concentration (IC50) in test [1] is above 1.1 µM; in test [2] it was above 1.1 µM; in test [3], 5.7 µM.
For `CS(=O)(=O)Nc1ccc2sc(C(=O)Nc3cc(Cl)cc(-c4cccs4)c3)cc2c1` [Example 336, N-(3-chloro-5-(thiophen-2-yl)phenyl)-5-(methylsulfonamido)benzo[b]thiophene-2-carboxamide], the IC50 was 0.065 µM in test [1], 0.21 µM in test [2] and 0.13 µM in test [3].
Consider `CS(=O)(=O)Nc1ccc2sc(C(=O)Nc3cc(-c4ccc(F)cc4F)cc(Cl)n3)cc2c1` [Example 337, N-(6-chloro-4-(2,4-difluorophenyl)pyridin-2-yl)-5-(methylsulfonamido)benzo[b]thiophene-2-carboxamide], for which the figures for the 50% inhibitory concentration (IC50) in test [1], in test [2] and in test [3] were 0.43 µM, 0.94 µM and 0.27 µM, respectively.
Take `CS(=O)(=O)Nc1ccc2sc(C(=O)Nc3cc(Cl)cc(-c4cnccn4)c3)cc2c1` [Example 338, N-(3-chloro-5-(pyrazin-2-yl)phenyl)-5-(methylsulfonamido)benzo[b]thiophene-2-carboxamide]: the concentration for half-maximal inhibition (IC50) in test [1] is 0.43 µM; in test [2] it was above 1.1 µM; in test [3] it was 0.92 µM.
In the same order, the values of `CS(=O)(=O)Nc1ccc2sc(C(=O)Nc3cc(Cl)cc(-c4cncc(Cl)n4)c3)cc2c1` [Example 339, N-(3-chloro-5-(6-chloropyrazin-2-yl)phenyl)-5-(methylsulfonamido)benzo[b]thiophene-2-carboxamide] are 0.31 µM, 0.56 µM and 0.76 µM.
Turning to `Cn1cncc1-c1cc(Cl)cc(NC(=O)c2cc3cc(NS(C)(=O)=O)ccc3s2)c1` [Example 340, N-(3-chloro-5-(1-methyl-1H-imidazol-5-yl)phenyl)-5-(methylsulfonamido)benzo[b]thiophene-2-carboxamide], the IC50 is above 1.1 µM in test [1], above 1.1 µM in test [2] and above 10 µM in test [3].
As for `CS(=O)(=O)Nc1ccc2sc(C(=O)Nc3cc(Cl)cc(C4(c5ccc(Cl)cc5)CC4)c3)cc2c1` [Example 432, N-(3-chloro-5-(1-(4-chlorophenyl)cyclopropyl)phenyl)-5-(methylsulfonamido)benzo[b]thiophene-2-carboxamide], the IC50 in test [1] came out at 0.06 µM; in test [2] it was 0.073 µM; in test [3] it was 0.049 µM.
`CS(=O)(=O)Nc1cc2cc(C(=O)Nc3cc(Cl)cc(C4(c5ccc(Cl)cc5)CC4)c3)sc2cc1Cl` [Example 433, 6-chloro-N-(3-chloro-5-(1-(4-chlorophenyl)cyclopropyl)phenyl)-5-(methylsulfonamido)benzo[b]thiophene-2-carboxamide]: the IC50 in test [1] came out at 0.006 µM; in test [2], 0.01 µM; in test [3], 0.013 µM.
As to `CN(c1ccc(Cl)cc1)c1cc(Cl)cc(NC(=O)c2cc3cc(NS(C)(=O)=O)c(Cl)cc3s2)c1` [Example 441, 6-chloro-N-(3-chloro-5-((4-chlorophenyl)(methyl)amino)phenyl)-5-(methylsulfonamido)benzo[b]thiophene-2-carboxamide], the 50% inhibitory concentration (IC50) in test [1] is 0.026 µM; in test [2], 0.012 µM; in test [3], 0.009 µM.
With `CN(c1cc(Cl)cc(NC(=O)c2cc3cc(NS(C)(=O)=O)c(Cl)cc3s2)c1)c1ccc(F)cc1F` [Example 442, 6-chloro-N-(3-chloro-5-((2,4-difluorophenyl)(methyl)amino)phenyl)-5-(methylsulfonamido)benzo[b]thiophene-2-carboxamide], the half-inhibitory concentration (IC50) was found to be 0.013 µM in test [1], 0.036 µM in test [2] and 0.021 µM in test [3].
With `CC(C)Oc1cc(OC(F)(F)F)cc(N(C)c2cc(Cl)cc(NC(=O)c3cc4cc(NS(C)(=O)=O)ccc4s3)c2)c1` [Example 443, N-(3-chloro-5-((3-isopropoxy-5-(trifluoromethoxy)phenyl)(methyl)amino)phenyl)-5-(methylsulfonamido)benzo[b]thiophene-2-carboxamide], the half-inhibitory concentration (IC50) amounted to 0.02 µM in test [1], 0.039 µM in test [2] and 0.065 µM in test [3].
Taken in the same sequence, the figures for `CS(=O)(=O)Nc1ccc2sc(C(=O)Nc3cc(Cl)cc(Oc4ccc(F)cc4)c3)cc2c1` [Example 446, N-(3-chloro-5-(4-fluorophenoxy)phenyl)-5-(methylsulfonamido)benzo[b]thiophene-2-carboxamide] were 0.065 µM, 0.13 µM and 0.096 µM.
In the same order, the values of `COc1ccc(Oc2cc(Cl)cc(NC(=O)c3cc4cc(NS(C)(=O)=O)ccc4s3)c2)cc1` [Example 447, N-(3-chloro-5-(4-methoxyphenoxy)phenyl)-5-(methylsulfonamido)benzo[b]thiophene-2-carboxamide] are 0.14 µM, 0.49 µM and 0.27 µM.
Consider `CS(=O)(=O)Nc1ccc2sc(C(=O)Nc3cc(Cl)cc(Oc4cc(F)ccc4F)c3)cc2c1` [Example 448, N-(3-chloro-5-(2,5-difluorophenoxy)phenyl)-5-(methylsulfonamido)benzo[b]thiophene-2-carboxamide], for which the IC50 in test [1] was found to be 0.16 µM; in test [2], 0.35 µM; in test [3], 0.23 µM.
